“Also recorded” adds a separate entry of the source. No end group written: not given here.
Columns and labels:
M. luteus ATCC 4698 = assay: MIC determination in broth; assay type: cell-based, Micrococcus luteus; conditions: cation-adjusted MH broth, ~10^5 CFU/mL, 30°C, 48 h
Experimental: (§1) M. luteus ATCC 4698, S. aureus ATCC 29213, a panel of 7 MRSA (ATCC MP-2) strains, which includes ATCC BAA-41, BAA-42, BAA-44, BAA-1683, BAA-2094, BAA-2313, and 33592, and a series of additional bacterial isolates from human and veterinary cases were used in this study (Table S6). Bacterial strains were routinely grown in lysogeny broth (LB: 10 g/L tryptone, 5 g/L yeast extract, 10 g/L NaCl) at 30°C (M. luteus) or 37°C (Staphylococcus spp.) prior to use in specific experiments described below.
(§2) The MICs were measured for bioactive peptides identified from the initial screen. Cation-adjusted Mueller-Hinton (MH) broth was used as the growth medium for MIC determination experiments. Bacterial cultures were diluted to an OD of 5 × 10^−4 (∼10^5 CFU/mL) in 200 μL MH broth mixed with peptides in a 2-fold dilution series arrayed in 96-well plates. Plates were incubated without shaking at 30 or 37°C depending on the organism.

MRSA ATCC 33592 = assay: MIC determination in broth; assay type: cell-based, Staphylococcus aureus; conditions: Table S5; STIP3 variants, highest conc. tested 100 μg/mL; cation-adjusted MH broth, ~10^5 CFU/mL, 2-fold dilution series, 37°C, 16 h
Experimental: as §1, §2

MRSA ATCC BAA-1683 = assay: MIC determination in broth; assay type: cell-based, Staphylococcus aureus; conditions: STIP3 variants, highest conc. tested 100 μg/mL; cation-adjusted MH broth, ~10^5 CFU/mL, 2-fold dilution series, 37°C, 16 h
Experimental: as §1, §2

MRSA ATCC BAA-2094 = assay: MIC determination in broth; assay type: cell-based, Staphylococcus aureus; conditions: STIP3 variants, highest conc. tested 100 μg/mL; cation-adjusted MH broth, ~10^5 CFU/mL, 2-fold dilution series, 37°C, 16 h
Experimental: as §1, §2

MRSA ATCC BAA-2313 = assay: MIC determination in broth; assay type: cell-based, Staphylococcus aureus; conditions: STIP3 variants, highest conc. tested 100 μg/mL; cation-adjusted MH broth, ~10^5 CFU/mL, 2-fold dilution series, 37°C, 16 h
Experimental: as §1, §2

MRSA ATCC BAA-41 = assay: MIC determination in broth; assay type: cell-based, Staphylococcus aureus; conditions: STIP3 variants, highest conc. tested 100 μg/mL; cation-adjusted MH broth, ~10^5 CFU/mL, 2-fold dilution series, 37°C, 16 h
Experimental: as §1, §2

MRSA ATCC BAA-42 = assay: MIC determination in broth; assay type: cell-based, Staphylococcus aureus; conditions: STIP3 variants, highest conc. tested 100 μg/mL; cation-adjusted MH broth, ~10^5 CFU/mL, 2-fold dilution series, 37°C, 16 h
Experimental: as §1, §2

MRSA ATCC BAA-44 = assay: MIC determination in broth; assay type: cell-based, Staphylococcus aureus; conditions: STIP3 variants, highest conc. tested 100 μg/mL; cation-adjusted MH broth, ~10^5 CFU/mL, 2-fold dilution series, 37°C, 16 h
Experimental: as §1, §2

S. aureus ATCC 29213 = assay: MIC determination in broth; assay type: cell-based, Staphylococcus aureus; conditions: STIP3 variants, highest conc. tested 100 μg/mL; cation-adjusted MH broth, ~10^5 CFU/mL, 2-fold dilution series, 37°C, 16 h
Experimental: as §1, §2

S. aureus = assay: MIC of STIP3-1 alanine variants in liquid broth; assay type: cell-based, Staphylococcus aureus; conditions: for MIC, S. aureus (alanine substituted STIP3-1, liquid broth): Table S4, maximum concentration tested 200 μg/mL, strain not given; for Activity against S. aureus in nutrient broth: at 200 μg/mL
Experimental: The MICs were measured for bioactive peptides identified from the initial screen. […] […] Plates were incubated without shaking at 30 or 37°C depending on the organism.

SspA [1] = assay: SspA protease in 100 mM HEPES (pH 7.8); conditions: Staphylococcus aureus (staphylococcal secreted protease), 37°C, up to 5 h
SspA [2] = assay: SspA protease resuspended at 2 mg/mL in 100 mM HEPES (pH 7.8); conditions: 37°C, up to 5 h

Substance: TAGGLVKWILDTVKKFA [V2A]
- MIC, M. luteus (M. luteus ATCC 4698): 50 µg/mL

Substance: TVGGAVKWILDTVKKFA [L5A]
- MIC, M. luteus (M. luteus ATCC 4698): 100 µg/mL

Substance: TVGGLAKWILDTVKKFA [V6A]
- MIC, M. luteus (M. luteus ATCC 4698): 50 µg/mL

Substance: TVGGLVKAILDTVKKFA [W8A]
- MIC, M. luteus (M. luteus ATCC 4698): 100 µg/mL

Substance: TVGGLVKWILATVKKFA [STIP3-2]
- MIC, S. aureus ATCC 33592 (SCCmec III) (MRSA ATCC 33592): 50 µg/mL
- MIC, S. aureus ATCC BAA 1683 (SCCmec IV) (MRSA ATCC BAA-1683): 50 µg/mL
- MIC, S. aureus ATCC BAA 2094 (SCCmec V) (MRSA ATCC BAA-2094): 50 µg/mL
- MIC, S. aureus ATCC BAA 2313 (SCCmec XI) (MRSA ATCC BAA-2313): 50 µg/mL
- MIC, S. aureus ATCC BAA 41 (SCCmec II) (MRSA ATCC BAA-41): 100 µg/mL
- MIC, S. aureus ATCC BAA 42 (SCCmec VI) (MRSA ATCC BAA-42): 50 µg/mL
- MIC, S. aureus ATCC BAA 44 (SCCmec I) (MRSA ATCC BAA-44): 100 µg/mL
- MIC, S. aureus ATCC 29213 (S. aureus ATCC 29213): 100 µg/mL
- MIC, M. luteus (M. luteus ATCC 4698): 3.13 µg/mL
- MIC, S. aureus (alanine substituted STIP3-1, liquid broth) (S. aureus): 100 µg/mL
- Activity against S. aureus in nutrient broth (S. aureus): maintained activity

Substance: TVGGLVKWILDAVKKFA [T12A]
- MIC, M. luteus (M. luteus ATCC 4698): 12.5 µg/mL
- MIC, S. aureus (alanine substituted STIP3-1, liquid broth) (S. aureus): 100 µg/mL
- Activity against S. aureus in nutrient broth (S. aureus): maintained activity

Substance: TVGGLVKWILDTAKKFA [V13A]
- MIC, M. luteus (M. luteus ATCC 4698): 50 µg/mL
- Activity against S. aureus in nutrient broth (S. aureus): maintained activity

Substance: TVGGLVKWILDTVKKFA
- fragment found (SspA [1]): TVGGLVKWILD; also recorded: TVKKFA
- cleaved bond (SspA [2]): Asp11-T12

Substance: TVRALVRWILRTVARFA [STIP3-23, rationally designed STIP3-1 variant]
- MIC, S. aureus ATCC 33592 (SCCmec III) (MRSA ATCC 33592): 25 µg/mL
- MIC, S. aureus ATCC BAA 1683 (SCCmec IV) (MRSA ATCC BAA-1683): 25 µg/mL
- MIC, S. aureus ATCC BAA 2094 (SCCmec V) (MRSA ATCC BAA-2094): 50 µg/mL
- MIC, S. aureus ATCC BAA 2313 (SCCmec XI) (MRSA ATCC BAA-2313): 25 µg/mL
- MIC, S. aureus ATCC BAA 41 (SCCmec II) (MRSA ATCC BAA-41): 6.25 µg/mL
- MIC, S. aureus ATCC BAA 42 (SCCmec VI) (MRSA ATCC BAA-42): 50 µg/mL
- MIC, S. aureus ATCC BAA 44 (SCCmec I) (MRSA ATCC BAA-44): 25 µg/mL
- MIC, S. aureus ATCC 29213 (S. aureus ATCC 29213): 25 µg/mL

Substance: TVXALVXWILXTVAXFA [STIP3-22, rationally designed STIP3-1 variant with L-ornithine]
- MIC, S. aureus ATCC 33592 (SCCmec III) (MRSA ATCC 33592): 25 µg/mL
- MIC, S. aureus ATCC BAA 1683 (SCCmec IV) (MRSA ATCC BAA-1683): 25 µg/mL
- MIC, S. aureus ATCC BAA 2094 (SCCmec V) (MRSA ATCC BAA-2094): 25 µg/mL
- MIC, S. aureus ATCC BAA 2313 (SCCmec XI) (MRSA ATCC BAA-2313): 100 µg/mL
- MIC, S. aureus ATCC BAA 41 (SCCmec II) (MRSA ATCC BAA-41): 25 µg/mL
- MIC, S. aureus ATCC BAA 42 (SCCmec VI) (MRSA ATCC BAA-42): 25 µg/mL
- MIC, S. aureus ATCC BAA 44 (SCCmec I) (MRSA ATCC BAA-44): 25 µg/mL
- MIC, S. aureus ATCC 29213 (S. aureus ATCC 29213): 25 µg/mL

Substance: f-MTKDIVETVGGLVKWILDTVKKFA
- not cleaved (SspA [2]): no SspA cleavage was observed

Reference: publication PMC8694143 (Microbiology Spectrum, 2021)
